IC50 data for one compound are collected here from ChEMBL document CHEMBL3639378, “Morpholinone compounds as factor IXA inhibitors” (2015).

This experiment addresses Coagulation factor IX (Homo sapiens, UniProt P00740). Kind of experiment: Test substances dissolved in buffer A (50 mM α,α,α-tris (hydroxymethyl)methylamine (Tris), 100 mM NaCl, 5 mM CaCl2, 15% (v/v) ethylene glycol, pH 8.0) were mixed with factor IXa (2.0 μg/ml final concentration). The enzyme reaction was started by addition of SPECTROFLUOR FIXa (100 μM final concentration).

Chain of Coagulation factor IX (P00740 47-191 limits assumed): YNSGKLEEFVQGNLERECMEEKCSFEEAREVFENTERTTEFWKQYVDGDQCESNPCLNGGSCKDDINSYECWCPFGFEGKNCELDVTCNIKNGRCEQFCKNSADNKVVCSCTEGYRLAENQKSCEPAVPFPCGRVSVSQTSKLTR
Chain of Coagulation factor IX (P00740 227-461 limits assumed): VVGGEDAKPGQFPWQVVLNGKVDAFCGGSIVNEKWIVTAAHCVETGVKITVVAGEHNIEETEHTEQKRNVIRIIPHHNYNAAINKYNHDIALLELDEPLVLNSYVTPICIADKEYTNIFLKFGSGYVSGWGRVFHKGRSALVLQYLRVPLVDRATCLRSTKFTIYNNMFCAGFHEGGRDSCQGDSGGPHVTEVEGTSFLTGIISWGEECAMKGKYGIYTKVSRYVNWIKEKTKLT

The compound `Cc1ccc(CN2CCO[C@H]([C@@H](O)C(=O)Nc3ccc(C(=N)N)cc3)C2=O)cc1` showed an IC50 of 130 nM.
